Experimental data: ChEMBL document CHEMBL1201862, “PubChem BioAssay data set” (2004)
The source made the active and inactive calls.

Assays:
[1] = Luminescence Cell-Based Dose Retest to Confirm Inhibitors of Cancer Stem Cells. [Related pubchem assays (depositor defined):AID2717, AID2721]; type: functional; conditions: Homo sapiens
[2] = biological target: T1, High affinity choline transporter 1 (Homo sapiens, UniProt Q9GZV3); test: human choline transporter blockers, potency – cell-based, 5-point CRC, membrane potential dye, dose response (AID 504840); type: functional
T1 sequence (Q9GZV3 whole entry): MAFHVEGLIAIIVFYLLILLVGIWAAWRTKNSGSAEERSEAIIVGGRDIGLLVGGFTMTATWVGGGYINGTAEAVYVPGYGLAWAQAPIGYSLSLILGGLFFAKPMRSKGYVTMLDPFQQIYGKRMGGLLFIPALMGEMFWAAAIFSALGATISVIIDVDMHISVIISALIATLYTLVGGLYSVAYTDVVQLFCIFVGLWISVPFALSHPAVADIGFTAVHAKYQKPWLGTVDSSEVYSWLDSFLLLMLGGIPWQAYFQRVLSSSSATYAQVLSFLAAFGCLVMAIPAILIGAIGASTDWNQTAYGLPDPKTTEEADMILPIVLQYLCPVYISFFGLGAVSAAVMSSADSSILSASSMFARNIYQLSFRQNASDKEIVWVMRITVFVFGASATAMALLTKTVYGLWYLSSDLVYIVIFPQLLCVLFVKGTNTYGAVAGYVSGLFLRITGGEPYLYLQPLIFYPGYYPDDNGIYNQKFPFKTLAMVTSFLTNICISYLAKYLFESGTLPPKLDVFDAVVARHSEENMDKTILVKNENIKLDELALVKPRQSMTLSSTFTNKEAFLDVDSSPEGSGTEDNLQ

[3] = system: Vero; test: viability of Vero cells under compound – cytotoxicity control for flavivirus capping enzyme inhibitors (AID 588742); type: functional; conditions: Chlorocebus sabaeus
[4] = biological target: T1, High affinity choline transporter 1; test: human choline transporter blockers, potency – cell-based, 10-point CRC, membrane potential dye, dose response (AID 588401); type: functional;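 note: membrane potential dye fluorescence of choline-evoked depolarization via CHT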
[5] = biological target: Genome polyprotein (dengue virus type 2, UniProt P29990); test: flavivirus cap methylation enzyme inhibition – biochemical, confirmation dose response, primary screen (AID 588689); type: functional
Sequence of Genome polyprotein (P29990 2492-3391 limits assumed): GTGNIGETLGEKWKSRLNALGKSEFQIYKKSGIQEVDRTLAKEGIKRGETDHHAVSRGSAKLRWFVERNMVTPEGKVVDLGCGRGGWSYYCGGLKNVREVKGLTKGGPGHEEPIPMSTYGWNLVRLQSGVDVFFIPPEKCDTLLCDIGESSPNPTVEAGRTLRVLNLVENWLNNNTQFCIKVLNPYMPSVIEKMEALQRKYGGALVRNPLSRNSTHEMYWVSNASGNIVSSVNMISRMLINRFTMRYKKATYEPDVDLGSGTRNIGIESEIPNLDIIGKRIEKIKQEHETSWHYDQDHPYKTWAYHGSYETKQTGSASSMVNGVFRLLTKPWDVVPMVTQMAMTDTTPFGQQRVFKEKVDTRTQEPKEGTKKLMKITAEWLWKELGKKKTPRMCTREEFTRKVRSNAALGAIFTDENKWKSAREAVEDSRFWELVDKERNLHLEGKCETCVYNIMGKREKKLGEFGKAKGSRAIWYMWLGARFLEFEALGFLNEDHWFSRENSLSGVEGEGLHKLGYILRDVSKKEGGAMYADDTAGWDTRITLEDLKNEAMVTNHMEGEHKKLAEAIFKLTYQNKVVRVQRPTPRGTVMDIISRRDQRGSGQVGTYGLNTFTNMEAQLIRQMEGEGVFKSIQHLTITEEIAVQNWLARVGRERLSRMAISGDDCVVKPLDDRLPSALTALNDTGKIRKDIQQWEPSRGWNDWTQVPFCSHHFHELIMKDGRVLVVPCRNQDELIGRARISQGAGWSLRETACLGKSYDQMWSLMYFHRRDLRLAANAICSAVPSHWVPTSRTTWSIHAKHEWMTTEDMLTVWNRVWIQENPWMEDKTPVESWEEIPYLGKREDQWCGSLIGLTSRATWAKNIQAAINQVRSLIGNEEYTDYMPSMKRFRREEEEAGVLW

[6] = biological target: Large T antigen (Simian virus 40, UniProt P03070); type: functional, Betapolyomavirus macacae;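 note: Confirmatory-stage PubChem screen for compounds that inhibit SV40 T antigen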
Sequence of Large T antigen (P03070 whole entry): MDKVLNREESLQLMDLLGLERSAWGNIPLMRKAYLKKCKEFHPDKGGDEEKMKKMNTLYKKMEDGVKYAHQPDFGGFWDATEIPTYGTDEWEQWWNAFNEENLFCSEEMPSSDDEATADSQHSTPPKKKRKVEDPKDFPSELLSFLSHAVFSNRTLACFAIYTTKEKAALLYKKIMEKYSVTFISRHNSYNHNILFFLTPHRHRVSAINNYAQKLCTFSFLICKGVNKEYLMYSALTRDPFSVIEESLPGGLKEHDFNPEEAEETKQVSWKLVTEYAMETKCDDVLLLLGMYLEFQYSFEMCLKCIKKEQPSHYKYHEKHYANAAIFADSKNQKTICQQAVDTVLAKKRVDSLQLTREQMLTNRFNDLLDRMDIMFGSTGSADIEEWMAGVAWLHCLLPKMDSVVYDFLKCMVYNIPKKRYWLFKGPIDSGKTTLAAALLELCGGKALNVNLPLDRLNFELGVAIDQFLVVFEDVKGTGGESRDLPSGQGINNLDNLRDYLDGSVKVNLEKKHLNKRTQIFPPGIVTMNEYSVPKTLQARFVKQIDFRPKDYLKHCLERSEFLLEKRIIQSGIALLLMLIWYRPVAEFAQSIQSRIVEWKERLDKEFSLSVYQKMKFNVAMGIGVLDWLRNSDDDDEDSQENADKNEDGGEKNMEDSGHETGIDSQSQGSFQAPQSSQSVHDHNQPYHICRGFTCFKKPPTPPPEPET

[7] = biological target: Induced myeloid leukemia cell differentiation protein Mcl-1 (Homo sapiens, UniProt Q07820); type: functional
Sequence of Induced myeloid leukemia cell differentiation protein Mcl-1 (Q07820 whole entry): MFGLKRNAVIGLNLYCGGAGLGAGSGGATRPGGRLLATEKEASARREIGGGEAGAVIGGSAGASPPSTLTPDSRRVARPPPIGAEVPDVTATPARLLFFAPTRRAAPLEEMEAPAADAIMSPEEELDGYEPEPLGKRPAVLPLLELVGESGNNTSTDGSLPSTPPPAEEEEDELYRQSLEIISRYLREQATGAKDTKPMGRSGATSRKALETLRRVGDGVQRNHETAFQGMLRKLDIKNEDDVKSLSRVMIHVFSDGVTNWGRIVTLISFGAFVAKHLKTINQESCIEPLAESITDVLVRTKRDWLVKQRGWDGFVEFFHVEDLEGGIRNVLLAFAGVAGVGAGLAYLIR

[8] = system: HeLa; test: viability loss in HeLa cells – cell-based, 24 h, cherry-picked samples, cytotoxicity control, dose response (AID 504726); type: functional; conditions: Homo sapiens;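 note: potency for cytotoxicity as loss of luminescence signal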
[9] = biological target: ORF 73 (Human herpesvirus 8, UniProt O40947); test: KSHV LANA DNA-binding disruption – biochemical, fluorescence polarization, cherry-picked samples, dose response (AID 504725); design: species or system Human gammaherpesvirus 8;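 note: fluorescence polarization of a labeled DNA duplex reporting LANA DNA binding; potency is for inhibitors that block LANA binding to the DNA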
Sequence of ORF 73 (O40947 whole entry): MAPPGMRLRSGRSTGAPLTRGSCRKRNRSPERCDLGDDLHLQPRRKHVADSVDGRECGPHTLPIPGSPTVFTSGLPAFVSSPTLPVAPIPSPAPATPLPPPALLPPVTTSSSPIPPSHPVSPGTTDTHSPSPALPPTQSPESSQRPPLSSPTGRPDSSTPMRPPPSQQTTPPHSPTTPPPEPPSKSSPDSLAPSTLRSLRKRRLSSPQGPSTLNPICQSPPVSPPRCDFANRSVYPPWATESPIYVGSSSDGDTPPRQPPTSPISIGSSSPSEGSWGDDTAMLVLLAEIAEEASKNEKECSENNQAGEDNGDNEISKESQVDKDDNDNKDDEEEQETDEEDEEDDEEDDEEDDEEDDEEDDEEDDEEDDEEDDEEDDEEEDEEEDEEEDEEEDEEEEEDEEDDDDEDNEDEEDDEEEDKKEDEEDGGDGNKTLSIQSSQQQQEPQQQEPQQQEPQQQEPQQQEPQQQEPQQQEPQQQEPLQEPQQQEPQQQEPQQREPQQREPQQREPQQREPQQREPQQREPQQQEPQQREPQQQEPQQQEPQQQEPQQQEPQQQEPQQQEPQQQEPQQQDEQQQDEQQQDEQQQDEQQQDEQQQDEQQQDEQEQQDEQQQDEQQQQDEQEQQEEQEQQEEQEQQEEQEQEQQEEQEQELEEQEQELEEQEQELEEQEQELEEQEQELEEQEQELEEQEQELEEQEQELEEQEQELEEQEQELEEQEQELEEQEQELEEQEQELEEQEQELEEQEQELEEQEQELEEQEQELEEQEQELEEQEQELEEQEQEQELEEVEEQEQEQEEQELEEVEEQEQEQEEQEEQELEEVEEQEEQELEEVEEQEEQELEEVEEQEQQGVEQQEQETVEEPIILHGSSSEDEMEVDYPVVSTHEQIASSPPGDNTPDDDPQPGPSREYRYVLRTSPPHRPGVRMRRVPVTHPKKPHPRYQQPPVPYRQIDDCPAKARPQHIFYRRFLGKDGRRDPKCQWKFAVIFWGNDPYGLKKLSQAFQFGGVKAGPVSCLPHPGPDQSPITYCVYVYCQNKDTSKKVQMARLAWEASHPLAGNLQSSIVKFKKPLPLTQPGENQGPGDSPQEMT

[10] = biological target: Intestinal-type alkaline phosphatase (Homo sapiens, UniProt P09923); test: activation of human intestinal alkaline phosphatase – biochemical, dose response (AID 488873); type: functional
Sequence of Intestinal-type alkaline phosphatase (Homo sapiens, UniProt P09923) (P09923 whole entry): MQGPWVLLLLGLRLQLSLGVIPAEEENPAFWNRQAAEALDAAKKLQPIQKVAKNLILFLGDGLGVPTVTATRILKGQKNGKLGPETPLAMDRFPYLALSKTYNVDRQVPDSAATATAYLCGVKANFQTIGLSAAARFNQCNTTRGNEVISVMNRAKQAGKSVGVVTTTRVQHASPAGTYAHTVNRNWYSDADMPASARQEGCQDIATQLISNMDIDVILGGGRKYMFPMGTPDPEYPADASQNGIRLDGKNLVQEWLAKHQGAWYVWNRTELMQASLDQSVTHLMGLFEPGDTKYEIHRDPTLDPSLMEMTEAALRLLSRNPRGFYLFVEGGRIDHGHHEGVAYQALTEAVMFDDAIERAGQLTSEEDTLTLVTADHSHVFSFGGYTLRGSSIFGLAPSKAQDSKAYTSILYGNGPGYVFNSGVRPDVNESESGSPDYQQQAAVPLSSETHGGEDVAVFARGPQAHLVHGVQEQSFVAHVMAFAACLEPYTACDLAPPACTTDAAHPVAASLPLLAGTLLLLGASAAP

[11] = biological target: Intestinal-type alkaline phosphatase (Mus musculus, UniProt P24822); test: PubChem AID 488785; type: functional
[12] = biological target: Eukaryotic translation initiation factor 4E (Mus musculus, UniProt P63073); test: blockers of eIF4G binding by eIF4E – biochemical, TR-FRET, dose response (AID 855); type: functional;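 note: potency for disrupting eIF4E binding to eIF4GI seen as loss of FRET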
Sequence of Eukaryotic translation initiation factor 4E (P63073 whole entry): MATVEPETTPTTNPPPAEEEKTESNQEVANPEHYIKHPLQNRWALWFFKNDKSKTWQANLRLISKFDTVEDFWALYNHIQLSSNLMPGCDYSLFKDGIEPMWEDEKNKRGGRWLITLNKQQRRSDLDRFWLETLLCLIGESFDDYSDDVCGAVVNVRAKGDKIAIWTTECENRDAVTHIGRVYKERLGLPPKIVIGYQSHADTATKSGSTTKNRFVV

[13] = biological target: T2, Alkaline phosphatase, tissue-nonspecific isozyme (Homo sapiens, UniProt P05186); test: TNAP enzyme inhibition by screening hits, dose response, selectivity assay for mouse IAP inhibitor project, biochemical, human TNAP, uHTS hits (AID 488906); type: functional
T2 sequence (P05186 whole entry): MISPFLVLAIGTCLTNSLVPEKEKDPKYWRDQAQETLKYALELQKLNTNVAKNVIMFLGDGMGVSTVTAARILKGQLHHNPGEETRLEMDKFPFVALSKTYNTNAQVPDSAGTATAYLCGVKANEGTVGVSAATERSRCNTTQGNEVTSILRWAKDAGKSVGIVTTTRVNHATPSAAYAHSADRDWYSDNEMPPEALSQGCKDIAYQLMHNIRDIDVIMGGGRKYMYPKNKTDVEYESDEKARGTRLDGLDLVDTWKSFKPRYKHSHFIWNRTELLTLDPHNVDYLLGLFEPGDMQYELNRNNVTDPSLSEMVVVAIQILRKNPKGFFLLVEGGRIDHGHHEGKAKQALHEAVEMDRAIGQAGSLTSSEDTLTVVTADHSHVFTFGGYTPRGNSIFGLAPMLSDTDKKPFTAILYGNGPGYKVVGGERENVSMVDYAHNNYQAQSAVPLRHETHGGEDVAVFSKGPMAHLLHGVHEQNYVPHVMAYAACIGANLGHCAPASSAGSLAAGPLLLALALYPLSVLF

[14] = biological target: T3, DNA dC->dU-editing enzyme APOBEC-3A (Homo sapiens, UniProt P31941); test: SAR analysis of small molecule inhibitors of APOBEC3A DNA Deaminase via a fluorescence-based single-stranded DNA deaminase assay - Set 2.; type: functional; conditions: read-out: IC50_Mean
T3 sequence (P31941 whole entry): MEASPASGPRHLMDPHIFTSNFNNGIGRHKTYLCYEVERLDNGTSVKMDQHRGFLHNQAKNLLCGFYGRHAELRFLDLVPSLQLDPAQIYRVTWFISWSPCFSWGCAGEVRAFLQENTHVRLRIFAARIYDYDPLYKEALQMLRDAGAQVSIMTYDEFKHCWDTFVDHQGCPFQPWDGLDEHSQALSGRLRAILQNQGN

[15] = biological target: T4, DNA dC->dU-editing enzyme APOBEC-3G (Homo sapiens, UniProt Q9HC16); test: SAR analysis of small molecule inhibitors of APOBEC3G DNA Deaminase via a fluorescence-based single-stranded DNA deaminase assay - Set 2.; type: functional; conditions: read-out: IC50_Mean
T4 sequence (Q9HC16 whole entry): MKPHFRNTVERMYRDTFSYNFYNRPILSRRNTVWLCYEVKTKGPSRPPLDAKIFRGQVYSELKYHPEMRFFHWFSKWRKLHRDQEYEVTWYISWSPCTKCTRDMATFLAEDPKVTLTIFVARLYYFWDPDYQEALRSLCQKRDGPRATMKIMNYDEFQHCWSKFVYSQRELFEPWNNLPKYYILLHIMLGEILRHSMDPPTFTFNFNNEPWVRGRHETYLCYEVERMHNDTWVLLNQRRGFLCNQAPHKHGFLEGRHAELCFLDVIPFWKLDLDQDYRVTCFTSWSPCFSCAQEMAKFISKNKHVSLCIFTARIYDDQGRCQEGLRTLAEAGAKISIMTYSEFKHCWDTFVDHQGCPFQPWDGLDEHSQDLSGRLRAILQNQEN

[16] = biological target: T4, DNA dC->dU-editing enzyme APOBEC-3G; test: inhibition of APOBEC3G ssDNA deamination – biochemical, fluorescence, single-stranded DNA substrate, SAR follow-up (AID 602136); type: functional; conditions: read-out: IC50_Mean
[17] = biological target: T3, DNA dC->dU-editing enzyme APOBEC-3A; test: SAR analysis of small molecule inhibitors of APOBEC3A DNA Deaminase via a fluorescence-based single-stranded DNA deaminase assay.; type: functional; conditions: read-out: IC50_Mean
[18] = biological target: T5, Small ubiquitin-related modifier 2 (Homo sapiens, UniProt P61956); test: disruption of SUMO2 interaction with SIM peptide – biochemical, fluorescence polarization, uHTS hits, selectivity assay for SUMO1 interaction inhibitor project, dose response (AID 624385); type: functional; conditions: read-out: IC50_Mean
T5 sequence (P61956 whole entry): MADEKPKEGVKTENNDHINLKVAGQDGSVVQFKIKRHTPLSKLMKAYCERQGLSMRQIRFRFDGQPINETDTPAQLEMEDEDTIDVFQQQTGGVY

[19] = biological target: T6, Small ubiquitin-related modifier 1 (Homo sapiens, UniProt P63165); test: SUMO1 protein interaction blockers, potency – biochemical, fluorescence polarization, uHTS hits, dose response (AID 624382); type: functional; conditions: read-out: IC50_Mean
T6 sequence (P63165 whole entry): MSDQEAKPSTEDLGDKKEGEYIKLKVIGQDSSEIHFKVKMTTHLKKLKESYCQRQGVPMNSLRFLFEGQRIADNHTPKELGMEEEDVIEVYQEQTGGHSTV

[20] = biological target: T5, Small ubiquitin-related modifier 2; test: SUMO2 binding disruption by SUMO1 hits – biochemical, FRET, human SUMO2, uHTS hits, selectivity assay for SUMO1 interaction inhibitor project, dose response (AID 624384); type: functional; conditions: read-out: IC50_Mean
[21] = biological target: T6, Small ubiquitin-related modifier 1; test: SUMO1 protein-protein binding blockers, potency – biochemical, FRET, dose response (AID 624383); type: functional; conditions: read-out: IC50_Mean
[22] = biological target: T7, Histone-lysine N-methyltransferase NSD2 (Homo sapiens, UniProt O96028); type: biochemical
T7 sequence (O96028 whole entry): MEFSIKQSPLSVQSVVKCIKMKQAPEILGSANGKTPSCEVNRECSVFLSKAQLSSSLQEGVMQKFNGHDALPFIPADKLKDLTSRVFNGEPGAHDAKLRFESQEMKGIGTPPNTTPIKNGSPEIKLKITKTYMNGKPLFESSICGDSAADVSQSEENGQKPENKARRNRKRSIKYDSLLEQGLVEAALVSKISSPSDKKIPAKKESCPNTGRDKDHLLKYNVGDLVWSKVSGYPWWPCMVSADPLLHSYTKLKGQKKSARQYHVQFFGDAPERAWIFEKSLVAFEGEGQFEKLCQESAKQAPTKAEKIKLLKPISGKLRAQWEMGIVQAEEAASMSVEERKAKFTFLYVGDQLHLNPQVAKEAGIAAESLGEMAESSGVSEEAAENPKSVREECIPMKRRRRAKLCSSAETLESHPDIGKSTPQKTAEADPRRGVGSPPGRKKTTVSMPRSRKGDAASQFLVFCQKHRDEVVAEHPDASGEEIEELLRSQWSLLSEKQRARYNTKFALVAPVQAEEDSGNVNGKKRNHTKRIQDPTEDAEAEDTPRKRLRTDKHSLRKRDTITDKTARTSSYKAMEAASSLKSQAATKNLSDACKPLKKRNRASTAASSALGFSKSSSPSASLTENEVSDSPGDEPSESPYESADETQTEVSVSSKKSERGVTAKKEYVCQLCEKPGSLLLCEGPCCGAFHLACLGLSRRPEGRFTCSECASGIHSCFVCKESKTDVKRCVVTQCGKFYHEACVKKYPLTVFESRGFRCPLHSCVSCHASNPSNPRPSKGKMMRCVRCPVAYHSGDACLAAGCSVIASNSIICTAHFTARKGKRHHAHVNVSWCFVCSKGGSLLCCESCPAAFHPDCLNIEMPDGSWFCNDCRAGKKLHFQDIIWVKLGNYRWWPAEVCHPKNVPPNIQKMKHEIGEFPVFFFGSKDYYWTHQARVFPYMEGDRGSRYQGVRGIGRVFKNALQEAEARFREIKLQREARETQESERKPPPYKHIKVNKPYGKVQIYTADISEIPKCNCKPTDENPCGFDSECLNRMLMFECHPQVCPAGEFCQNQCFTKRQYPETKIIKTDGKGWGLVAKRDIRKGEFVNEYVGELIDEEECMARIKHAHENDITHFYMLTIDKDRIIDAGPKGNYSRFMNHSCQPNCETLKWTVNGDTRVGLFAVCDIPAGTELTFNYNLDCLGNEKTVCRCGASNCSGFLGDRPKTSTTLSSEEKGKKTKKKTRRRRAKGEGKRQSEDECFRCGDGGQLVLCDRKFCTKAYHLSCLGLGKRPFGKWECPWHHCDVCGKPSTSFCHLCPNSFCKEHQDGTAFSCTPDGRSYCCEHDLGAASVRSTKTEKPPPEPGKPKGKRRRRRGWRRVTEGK

[23] = biological target: Melanin-concentrating hormone receptor 1 (Homo sapiens, UniProt Q99705); test: Late-stage fluorescence-based counterscreen for antagonists of the G-protein coupled receptor 7 (GPR7): cell-based dose response assay to identify antagonists of the melanin-concentrating hormone receptor 1 (MCHR1) Set 6.; type: functional
Sequence of Melanin-concentrating hormone receptor 1 (Q99705 whole entry): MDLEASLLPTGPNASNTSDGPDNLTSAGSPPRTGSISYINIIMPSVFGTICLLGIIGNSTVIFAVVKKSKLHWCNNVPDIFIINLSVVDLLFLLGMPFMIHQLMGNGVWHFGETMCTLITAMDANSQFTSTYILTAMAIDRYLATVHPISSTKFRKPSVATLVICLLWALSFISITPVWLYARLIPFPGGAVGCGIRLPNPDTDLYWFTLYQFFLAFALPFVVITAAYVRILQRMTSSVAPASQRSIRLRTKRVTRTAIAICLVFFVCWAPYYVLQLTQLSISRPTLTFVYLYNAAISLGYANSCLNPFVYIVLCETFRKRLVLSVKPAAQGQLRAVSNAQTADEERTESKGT

[24] = biological target: T8, Neuropeptides B/W receptor type 1 (Homo sapiens, UniProt P48145); test: human NPBW1 receptor blockade, IC50 – cell-based, fluorescence, dose response, set 6, late-stage follow-up (AID 588583); type: functional
T8 sequence (P48145 whole entry): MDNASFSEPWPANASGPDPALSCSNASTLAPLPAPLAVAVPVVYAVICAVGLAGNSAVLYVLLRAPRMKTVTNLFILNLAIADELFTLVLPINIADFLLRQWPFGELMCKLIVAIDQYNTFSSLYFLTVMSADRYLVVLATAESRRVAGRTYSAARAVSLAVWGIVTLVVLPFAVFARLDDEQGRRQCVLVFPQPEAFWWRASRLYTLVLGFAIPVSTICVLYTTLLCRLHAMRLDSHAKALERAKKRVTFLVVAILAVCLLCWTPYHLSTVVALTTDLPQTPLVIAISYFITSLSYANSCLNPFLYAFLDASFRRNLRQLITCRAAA

COc1ccc(C)cc1NC(=O)c1ccccc1NS(=O)(=O)c1ccc(Cl)s1
AC50 [1]: 5.21 µM (active) | IC50 [2]: 5.82 µM (active) | CC50 [3]: 22.6 µM (active) | IC50 [4]: 1.75 µM (active) | IC50 [5]: 49.3 µM (active)

CC(=O)c1ccc2c(c1)C1C=CCC1C(C(=O)O)N2 (centres undefined)
IC50 [6]: 50.6 µM (active) | IC50 [7]: 5.11 µM (active) | AC50 [8]: 277 µM (active) | AC50 [9]: 15 µM (active) | EC50 [10]: > 100 µM (inactive) | IC50 [11]: 6.61 µM (active) | IC50 [12]: 50 µM (inactive) | IC50 [13]: 78.5 µM (active) | IC50 [14]: 2.32 µM (active) | IC50 [15]: 0.989 µM (active) | IC50 [16]: 5.03 µM (active) | IC50 [17]: 5.37 µM (active) | IC50 [18]: 4.87 µM (active) | IC50 [19]: 10.9 µM (active) | IC50 [20]: 1.45 µM (active) | IC50 [21]: 4.9 µM (active) | AC50 [22]: 1.45 µM (active)

N#CC(c1cccc(F)c1)c1c(Cl)cnn(Cc2cccc3ccccc23)c1=O (centres undefined)
IC50 [23]: 0.173 µM (active) | IC50 [24]: 0.173 µM (active)
